Data from patent publication US10464947B2 (Incyte Corporation, priority 2013, dated 2019).

The compounds below were run on KMS.12.BM cells (assay: KMS.12.BM Cell Viability Assay (Example B1)). Conditions: Homo sapiens, 72 h, 3 days, Cell Titer-GLO, read-out: KMS cellular IC50.
Assay type: cell-based, human
In short: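 KMS.12.BM human myeloma cells, 5000 cells/well in RPMI with 10% FBS, exposed to a compound concentration range for 3 days. Viable cells measured by ATP-based Cell Titer-GLO luminescence after 10 min at room temperature.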

| SMILES | IC50 [nM] |
| --- | --- |
| Cc1noc(C)c1-c1ccc2nc(N3CCC[C@H](O)C3)n3c2c1OC[C@@H]3c1ccccn1 [Example 170B, (3S)-1-[(4S)-7-(3,5-dimethylisoxazol-4-yl)-4-pyridin-2-yl-4,5-dihydroimidazo[1,5,4-de][1,4]benzoxazin-2-yl]piperidin-3-ol] | < 1000 |
| Cc1noc(C)c1-c1ccc2nc(N3CCC(N(C)C)CC3)n3c2c1OC[C@@H]3c1ccccn1 [Example 171, 1-[(4S)-7-(3,5-dimethylisoxazol-4-yl)-4-pyridin-2-yl-4,5-dihydroimidazo[1,5,4-de][1,4]benzoxazin-2-yl]-N,N-dimethylpiperidin-4-amine] | < 1000 |
| Cc1noc(C)c1-c1ccc2nc(N3CCNC(=O)C3)n3c2c1OC[C@@H]3c1ccccn1 [Example 172, 4-[(4S)-7-(3,5-dimethylisoxazol-4-yl)-4-pyridin-2-yl-4,5-dihydroimidazo[1,5,4-de][1,4]benzoxazin-2-yl]piperazin-2-one] | < 1000 |
| Cc1noc(C)c1-c1ccc2nc(N3CCN(S(C)(=O)=O)CC3)n3c2c1OC[C@@H]3c1ccccn1 [Example 173, (4S)-7-(3,5-dimethylisoxazol-4-yl)-2-[4-(methylsulfonyl)piperazin-1-yl]-4-pyridin-2-yl-4,5-dihydroimidazo[1,5,4-de][1,4]benzoxazine] | < 1000 |
| Cc1noc(C)c1-c1ccc2nc(N3CCN(C(C)C)CC3)n3c2c1OC[C@@H]3c1ccccn1 [Example 174, (4S)-7-(3,5-dimethylisoxazol-4-yl)-2-(4-isopropylpiperazin-1-yl)-4-pyridin-2-yl-4,5-dihydroimidazo[1,5,4-de][1,4]benzoxazine] | < 1000 |
| Cc1noc(C)c1-c1ccc2nc(N3CCC(C#N)CC3)n3c2c1OC[C@@H]3c1ccccn1 [Example 175, 1-[(4S)-7-(3,5-dimethylisoxazol-4-yl)-4-pyridin-2-yl-4,5-dihydroimidazo[1,5,4-de][1,4]benzoxazin-2-yl]piperidine-4-carbonitrile] | < 1000 |
| Cc1noc(C)c1-c1ccc2nc(N3CCC(CO)CC3)n3c2c1OC[C@@H]3c1ccccn1 [Example 176, {1-[(4S)-7-(3,5-dimethylisoxazol-4-yl)-4-pyridin-2-yl-4,5-dihydroimidazo[1,5,4-de][1,4]benzoxazin-2-yl]piperidin-4-yl}methanol] | < 1000 |
| Cc1noc(C)c1-c1ccc2nc(N3CCN(CCO)CC3)n3c2c1OC[C@@H]3c1ccccn1 [Example 177, 2-{4-[(4S)-7-(3,5-dimethylisoxazol-4-yl)-4-pyridin-2-yl-4,5-dihydroimidazo[1,5,4-de][1,4]benzoxazin-2-yl]piperazin-1-yl}ethanol] | < 1000 |
| Cc1noc(C)c1-c1ccc2nc(N3CCN(c4ccccc4)CC3)n3c2c1OC[C@@H]3c1ccccn1 [Example 178, (4S)-7-(3,5-dimethylisoxazol-4-yl)-2-(4-phenylpiperazin-1-yl)-4-pyridin-2-yl-4,5-dihydroimidazo[1,5,4-de][1,4]benzoxazine] | < 1000 |
| Cc1noc(C)c1-c1ccc2nc(N3CCN(Cc4ccccc4)CC3)n3c2c1OC[C@@H]3c1ccccn1 [Example 179, (4S)-2-(4-benzylpiperazin-1-yl)-7-(3,5-dimethylisoxazol-4-yl)-4-pyridin-2-yl-4,5-dihydroimidazo[1,5,4-de][1,4]benzoxazine] | < 1000 |
| Cc1noc(C)c1-c1ccc2nc(N3CC[C@@H](N(C)C)C3)n3c2c1OC[C@@H]3c1ccccn1 [Example 180A, (3R)-1-[(4S)-7-(3,5-dimethylisoxazol-4-yl)-4-pyridin-2-yl-4,5-dihydroimidazo[1,5,4-de][1,4]benzoxazin-2-yl]-N,N-dimethylpyrrolidin-3-amine] | < 1000 |
| Cc1noc(C)c1-c1ccc2nc(N3CC[C@H](N(C)C)C3)n3c2c1OC[C@@H]3c1ccccn1 [Example 180B, (3S)-1-[(4S)-7-(3,5-dimethylisoxazol-4-yl)-4-pyridin-2-yl-4,5-dihydroimidazo[1,5,4-de][1,4]benzoxazin-2-yl]-N,N-dimethylpyrrolidin-3-amine] | < 1000 |
| CN[C@@H]1CCN(c2nc3ccc(-c4c(C)noc4C)c4c3n2[C@@H](c2ccccn2)CO4)C1 [Example 181A, (3R)-1-[(4S)-7-(3,5-dimethylisoxazol-4-yl)-4-pyridin-2-yl-4,5-dihydroimidazo[1,5,4-de][1,4]benzoxazin-2-yl]-N-methylpyrrolidin-3-amine] | < 1000 |
| CN[C@H]1CCN(c2nc3ccc(-c4c(C)noc4C)c4c3n2[C@@H](c2ccccn2)CO4)C1 [Example 181B, (3S)-1-[(4S)-7-(3,5-dimethylisoxazol-4-yl)-4-pyridin-2-yl-4,5-dihydroimidazo[1,5,4-de][1,4]benzoxazin-2-yl]-N-methylpyrrolidin-3-amine] | < 1000 |
| Cc1noc(C)c1-c1ccc2nc(N3CC[C@@H](NC(=O)OC(C)(C)C)C3)n3c2c1OC[C@@H]3c1ccccn1 [Example 182A, tert-butyl {(3R)-1-[(4S)-7-(3,5-dimethylisoxazol-4-yl)-4-pyridin-2-yl-4,5-dihydroimidazo[1,5,4-de][1,4]benzoxazin-2-yl]pyrrolidin-3-yl}carbamate] | < 1000 |
| Cc1noc(C)c1-c1ccc2nc(N3CC[C@H](NC(=O)OC(C)(C)C)C3)n3c2c1OC[C@@H]3c1ccccn1 [Example 182B, tert-butyl {(3S)-1-[(4S)-7-(3,5-dimethylisoxazol-4-yl)-4-pyridin-2-yl-4,5-dihydroimidazo[1,5,4-de][1,4]benzoxazin-2-yl]pyrrolidin-3-yl}carbamate] | < 1000 |
| Cc1noc(C)c1-c1ccc2nc(N3CCN(CC4CC4)CC3)n3c2c1OC[C@@H]3c1ccccn1 [Example 183, (4S)-2-[4-(cyclopropylmethyl)piperazin-1-yl]-7-(3,5-dimethylisoxazol-4-yl)-4-pyridin-2-yl-4,5-dihydroimidazo[1,5,4-de][1,4]benzoxazine] | < 1000 |
| COCCN1CCN(c2nc3ccc(-c4c(C)noc4C)c4c3n2[C@@H](c2ccccn2)CO4)CC1 [Example 184, (4S)-7-(3,5-dimethylisoxazol-4-yl)-2-[4-(2-methoxyethyl)piperazin-1-yl]-4-pyridin-2-yl-4,5-dihydroimidazo[1,5,4-de][1,4]benzoxazine] | < 1000 |
| CNc1nc2ccc(-c3c(C)noc3C)c3c2n1C(c1ccccn1)CO3 (stereo not shown) [Example 186, 7-(3,5-dimethylisoxazol-4-yl)-N-methyl-4-pyridin-2-yl-4,5-dihydroimidazo[1,5,4-de][1,4]benzoxazin-2-amine] | < 1000 |
| Cc1noc(C)c1-c1ccc2nc(N(C)C)n3c2c1OCC3c1ccccn1 (stereo not shown) [Example 187, 7-(3,5-dimethylisoxazol-4-yl)-N,N-dimethyl-4-pyridin-2-yl-4,5-dihydroimidazo[1,5,4-de][1,4]benzoxazin-2-amine] | < 1000 |
| Cc1noc(C)c1-c1ccc2nc(N3CCC(C(N)=O)CC3)n3c2c1OC[C@@H]3c1ccccn1 [Example 188, 1-[(4S)-7-(3,5-dimethylisoxazol-4-yl)-4-pyridin-2-yl-4,5-dihydroimidazo[1,5,4-de][1,4]benzoxazin-2-yl]piperidine-4-carboxamide] | < 1000 |

Same assay, conditions: Homo sapiens, KMS-12-BM, 72 h, 3 days, Cell Titer-GLO, read-out: KMS cellular IC50

| SMILES | IC50 [nM] |
| --- | --- |
| Cc1noc(C)c1-c1ccc2nc(N(C)CCO)n3c2c1OCC3c1ccccn1 (stereo not shown) [Example 185, 2-[[7-(3,5-dimethylisoxazol-4-yl)-4-pyridin-2-yl-4,5-dihydroimidazo[1,5,4-de][1,4]benzoxazin-2-yl](methyl)amino]ethanol] | < 1000 |
